Measured values taken from patent US20240101546A1, “HETEROARYL-ACETYLENES, PHARMACEUTICAL COMPOSITIONS THEREOF, AND THEIR THERAPEUTIC APPLICATIONS” (Eubulus Biotherapeutics Inc., priority 2020, published 2024).

These compounds were tested on lung cancer cell line NCI-H82 (assay: Cell proliferation assay, NCI-H82 (CELL-TITER GLO)). Settings: Homo sapiens, NCI-H82, 72 h, NCI-H82 cells, 72 h incubation, cell viability by CELL-TITER GLO, top concentration 1 μM; read-out: EC50, Inhibition of NCl-H82 Cell Proliferation.
Format: cell-based
Outline: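 NCI-H82 cells, 1,000 per well in RPMI1640, were treated after overnight plating with a 3-fold dilution series from 1 μM. Viability read by CellTiter-Glo luminescence after 72 h. EC50 derived from the curves.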
Compound `C#Cc1nc(NC(=O)N[C@@H](COC(N)=O)c2ccc(-c3cccc4ncccc34)cc2)cs1` [Compound A230, (R)-2-(3-(2-Ethynylthiazol-4-yl)ureido)-2-(4-(quinolin-5-yl)phenyl)ethyl carbamate] has an EC50 of at most 0.2 µM.
Compound `C#Cc1nc(NC(=O)N[C@@H](COC(N)=O)c2ccc(-c3cccc4c3cnn4C)cc2)cs1` [Compound A231, (R)-2-(3-(2-Ethynylthiazol-4-yl)ureido)-2-(4-(1-methyl-1H-indazol-4-yl)phenyl)-ethyl carbamate] has an EC50 of at most 0.2 µM.
With `C#Cc1nc(NC(=O)N[C@@H](COC(N)=O)c2ccc(C3CCCc4c3cnn4C)cc2)cs1` (stereo partly drawn) [Compound A232, (2R)-2-(3-(2-Ethynylthiazol-4-yl)ureido)-2-(4-(1-methyl-4,5,6,7-tetrahydro-1H-indazol-4-yl)phenyl)ethyl carbamate] the EC50 was at most 0.2 µM.
Compound `C#Cc1nc(NC(=O)N[C@@H](COC(N)=O)c2ccc(C3=CCCc4c3cnn4C)cc2)cs1` [Compound A233, (R)-2-(3-(2-Ethynylthiazol-4-yl)ureido)-2-(4-(1-methyl-6,7-dihydro-1H-indazol-4-yl)phenyl)ethyl carbamate] has an EC50 of at most 0.2 µM.
For `C#Cc1nc(NC(=O)N[C@@H](COC(N)=O)c2ccc(-c3cccc(N4CCCC4)n3)cc2)cs1` [Compound A234, (R)-2-(3-(2-Ethynylthiazol-4-yl)ureido)-2-(4-(6-(pyrrolidin-1-yl)pyridin-2-yl)-phenyl)ethyl carbamate], the EC50 was at most 0.2 µM.
`C#Cc1nc(NC(=O)N[C@@H](COC(N)=O)c2ccc(-c3ccnc(N4CCCC4)c3)cc2)cs1` [Compound A235, (R)-2-(3-(2-Ethynylthiazol-4-yl)ureido)-2-(4-(2-(pyrrolidin-1-yl)pyridin-4-yl)-phenyl)ethyl carbamate] gave an EC50 of at most 0.2 µM.
`C#Cc1nc(NC(=O)N[C@@H](COC(N)=O)c2ccc(-c3cccc(C4(C#N)CC4)c3)cn2)cs1` [Compound A236, (R)-2-(5-(3-(1-Cyanocyclopropyl)phenyl)pyridin-2-yl)-2-(3-(2-ethynylthiazol-4-yl)ureido)ethyl carbamate] showed an EC50 of at most 0.2 µM.
For `C#Cc1nc(NC(=O)NCC2CCC(c3cccc(C4(C#N)CC4)c3)CC2)cs1` (centres unmarked) [Compound A238, 1-((4-(3-(1-Cyanocyclopropyl)phenyl)cyclohexyl)methyl)-3-(2-ethynylthiazol-4-yl)urea], the EC50 was at most 0.2 µM.
`C#Cc1nc(NC(=O)NCC2CC=C(c3cccc(C4(C#N)CC4)c3)CC2)cs1` (centres unmarked) [Compound A239, 1-((3′-(1-Cyanocyclopropyl)-2,3,4,5-tetrahydro-[1,1′-biphenyl]-4-yl)methyl)-3-(2-ethynylthiazol-4-yl)urea] showed an EC50 of at most 0.2 µM.
For `C#Cc1nc(NC(=O)NCC2CCN(c3cccc(C4(C#N)CC4)c3)CC2)cs1` [Compound A240, 1-((1-(3-(1-Cyanocyclopropyl)phenyl)piperidin-4-yl)methyl)-3-(2-ethynylthiazol-4-yl)urea], the EC50 was at most 0.2 µM.
`C#Cc1nccc(NC(=O)N[C@@H](CO)c2ccc(-c3cccc4ncsc34)cc2)n1` [Compound A241, (R)-1-(1-(4-(Benzo[d]thiazol-7-yl)phenyl)-2-hydroxyethyl)-3-(2-ethynyl-pyrimidin-4-yl)urea] gave an EC50 of at most 0.2 µM.
`C#Cc1nc(NC(=O)N2CCN(c3ccc(-c4cccc(N5CCCC5)c4)cc3)CC2)cs1` [Compound B15, N-(2-Ethynylthiazol-4-yl)-4-(3′-(pyrrolidin-1-yl)-[1,1′-biphenyl]-4-yl)piperazine-1-carboxamide] was tested, and the EC50 was at most 0.2 µM.
Work on `C#Cc1nc(NC(=O)N2CCN(c3ccc(-c4cccc5c4cnn5C)cc3)CC2)cs1` [Compound B18, N-(2-Ethynylthiazol-4-yl)-4-(4-(1-methyl-1H-indazol-4-yl)phenyl)piperazine-1-carboxamide] yielded an EC50 of at most 0.2 µM.
Work on `C#Cc1nc(NC(=O)N2CCN(c3ccc(-c4cccc5ncsc45)cc3)C[C@H]2CO)cs1` [Compound B23, (S)-4-(4-(Benzo[d]thiazol-7-yl)phenyl)-N-(2-ethynylthiazol-4-yl)-2-(hydroxy-methyl)piperazine-1-carboxamide] yielded an EC50 of at most 0.2 µM.
Work on `C#Cc1nc(NC(=O)N2CCN(c3ccc(-c4cccc5ncsc45)cc3)C[C@@H]2CO)cs1` [Compound B24, (R)-4-(4-(Benzo[d]thiazol-7-yl)phenyl)-N-(2-ethynylthiazol-4-yl)-2-(hydroxy-methyl)piperazine-1-carboxamide] yielded an EC50 of at most 0.2 µM.
`C#Cc1nc(NC(=O)N2CCN(c3ccc(-c4c(C#N)ccc5nc(N)sc45)cc3)CC2)cs1` [Compound B25, 4-(4-(2-Amino-6-cyanobenzo[d]thiazol-7-yl)phenyl)-N-(2-ethynylthiazol-4-yl)-piperazine-1-carboxamide] showed an EC50 of at most 0.2 µM.
Compound `C#Cc1nc(NC(=O)N2CCN(c3ccc(-c4cccc5nc(N)sc45)cc3)CC2)cs1` [Compound B27, 4-(4-(2-Aminobenzo[d]thiazol-7-yl)phenyl)-N-(2-ethynylthiazol-4-yl)piperazine-1-carboxamide] has an EC50 of at most 0.2 µM.
Compound `C#Cc1nc(NC(=O)N2CCN(c3ccc(-c4cccc5nnsc45)cc3)CC2)cs1` [Compound B28, 4-(4-(Benzo[d][1,2,3]thiadiazol-7-yl)phenyl)-N-(2-ethynylthiazol-4-yl)piperazine-1-carboxamide] has an EC50 of at most 0.2 µM.
`C#Cc1nc(NC(=O)N2CCN(c3ccc(-c4cccc(N5CCCC5)c4)cc3)C[C@H]2CO)cs1` [Compound B52, (S)—N-(2-Ethynylthiazol-4-yl)-2-(hydroxymethyl)-4-(3′-(pyrrolidin-1-yl)-[1,1′-biphenyl]-4-yl)piperazine-1-carboxamide] gave an EC50 of at most 0.2 µM.
In the case of `C#Cc1nc(NC(=O)N2CCN(c3ccc(-c4cccc(N5CCCC5)c4)cc3C#N)C[C@@H]2CO)cs1` [Compound B53, (R)-4-(3-Cyano-3′-(pyrrolidin-1-yl)-[1,1′-biphenyl]-4-yl)-N-(2-ethynylthiazol-4-yl)-2-(hydroxymethyl)piperazine-1-carboxamide], the EC50 is reported as at most 0.2 µM.
`C#Cc1nc(NC(=O)N2CCN(c3ccc(-c4cccc(N5CCCC5)c4)cc3)C[C@@H]2CO)cs1` [Compound B54, (R)—N-(2-Ethynylthiazol-4-yl)-2-(hydroxymethyl)-4-(3′-(pyrrolidin-1-yl)-[1,1′-biphenyl]-4-yl)piperazine-1-carboxamide] showed an EC50 of at most 0.2 µM.
In the case of `C#Cc1nc(NC(=O)N2CCN(c3ccc(-c4cccc(N5CCCC5)c4)cn3)C[C@@H]2CO)cs1` [Compound B56, (R)—N-(2-Ethynylthiazol-4-yl)-2-(hydroxymethyl)-4-(5-(3-(pyrrolidin-1-yl)-phenyl)pyridin-2-yl)piperazine-1-carboxamide], the EC50 is reported as at most 0.2 µM.
`C#Cc1nc(NC(=O)N2CCN(c3ncc(-c4cccc5ncsc45)cc3C#N)C[C@@H]2CO)cs1` [Compound B59, (R)-4-(5-(Benzo[d]thiazol-7-yl)-3-cyanopyridin-2-yl)-N-(2-ethynylthiazol-4-yl)-2-(hydroxymethyl)piperazine-1-carboxamide] was tested, and the EC50 was at most 0.2 µM.
